Measurements: patent US20230095836A1, “SUBSTITUTED 5,6-DIPHENYL-3(2H)-PYRIDAZINONES FOR USE AS FUNGICIDES” (FMC Corporation, priority 2020, published 2023)

Columns and labels:
Assay type in all cases: in vivo
[1] = test system: Alternaria solani; test: Test F: test suspension sprayed on tomato seedlings, inoculated next day with Alternaria solani (tomato early blight); visual disease rating (100 = 100% disease control, 0 = no control; dash = not tested)
Summary of the method: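 Tomato seedlings sprayed to run-off with test suspension, inoculated next day with A. solani spores, held saturated at 27° C. for 48 h, then 20° C. for 3 days. Disease visually rated as % control relative to untreated controls.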

[2] = test system: Botrytis cinerea; test: Test E: test suspension sprayed on tomato seedlings, inoculated next day with Botrytis cinerea (tomato Botrytis); visual disease rating (100 = 100% disease control, 0 = no control; dash = not tested)
Summary of the method: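 Tomato seedlings were sprayed to run-off and inoculated next day with Botrytis cinerea spores. They were held 48 h at 20° C in saturated humidity, then 3 days at 24° C. Disease control was rated visually against controls (100 = full, 0 = none).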

[3] = test system: Blumeria graminis f. sp. tritici; test: Test C: test suspension sprayed on wheat seedlings, inoculated next day with Blumeria graminis f. sp. tritici (wheat powdery mildew); visual disease rating (100 = 100% disease control, 0 = no control; dash = not tested)
Summary of the method: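 Wheat seedlings were sprayed to run-off with test suspension, then dusted next day with Blumeria graminis f. sp. tritici spores. After 8 days at 20 °C in a growth chamber, disease was rated visually as percent control relative to untreated controls.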

[4] = test system: Puccinia recondita f. sp. tritici; test: Test B: test solution sprayed on wheat seedlings, inoculated next day with Puccinia recondita f. sp. tritici (wheat leaf rust); disease rating (100 = 100% disease control, 0 = no control; dash = not tested)
Description: The resulting test suspensions were then used in Tests A-F. The test solution was sprayed to the point of run-off on wheat seedlings. […] A rating of 100 indicates 100% disease control and a rating of 0 indicates no disease control (relative to the controls). A dash (—) indicates the compound was not tested.

[5] = test system: Phakopsora pachyrhizi; test: Test D: test solution sprayed on soybean seedlings, inoculated next day with Phakopsora pachyrhizi (Asian soybean rust); visual disease rating (100 = 100% disease control, 0 = no control; dash = not tested)
Summary of the method: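 Compounds predissolved in acetone (3% of final volume), suspended at ppm concentrations in 50/50 acetone/water with 250 ppm PEG400, sprayed to run-off on soybean seedlings. Inoculated next day with spores, 24 h saturated atmosphere at 22 °C, then 8 days growth chamber at 22 °C; visual rating, 100 = full control.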

[6] = test system: Zymoseptoria tritici; test: Test A: test solution sprayed on wheat seedlings, inoculated next day with Zymoseptoria tritici (wheat leaf blotch); disease rating (100 = 100% disease control, 0 = no control; dash = not tested)
Summary of the method: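 Wheat seedlings sprayed to run-off with test solution, inoculated next day with Z. tritici spores, held 48 h at 24° C in saturated atmosphere, then 17 days at 20° C before rating. Scores are % disease control relative to controls (100 = full control, 0 = none).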

SMILES | Test F disease control rating ([1]; 50 ppm) [%] | Test E disease control rating ([2]; 50 ppm) [%] | Test C disease control rating ([3]; 50 ppm) [%] | Test B disease control rating ([4]; 50 ppm) [%] | Test D disease control rating ([5]; 50 ppm) [%] | Test A disease control rating ([6]; 50 ppm) [%] | further results
COc1ccc(Cl)c(-c2nn(C)c(=O)c(Cl)c2-c2ccc(F)cc2F)c1 [Compound 185] | 100 | 96 | 99 | 100 | 100 | 100 | –
Cn1nc(-c2ccc(F)cc2Cl)c(-c2ccc(F)cc2Cl)c(C(C)(C)O)c1=O [Compound 123] | 0 | 0 | 0 | 0 | 68 | 0 | –
Cn1nc(-c2ccc(F)cc2Cl)c(-c2ccc(F)cc2Cl)c(CF)c1=O [Compound 171] | 96 | 100 | 99 | 99 | 0 | 99 | –
CCc1c(-c2c(F)cccc2F)c(-c2c(F)cccc2F)nn(C)c1=O [Compound 46] | 99 | 88 | 95 | 98 | 0 | 99 | –
CCn1nc(-c2cc(OC)cc(OC)c2Br)c(-c2c(F)cccc2F)c(OC)c1=O [Compound 74] | 0 | 99 | 98 | 99 | 75 | 100 | –
COc1cc(F)c(F)c(-c2nn(C)c(=O)c(C)c2-c2ccc(F)cc2Cl)c1 [Compound 137] | 100 | 66 | 100 | 100 | 100 | 100 | –
COc1ccc(Cl)c(-c2nn(C)c(=O)cc2-c2ccc(F)cc2Cl)c1 [Compound 117] | 0 | 99 | 93 | 98 | 47 | 99 | –
Cn1nc(-c2cccc(F)c2Cl)c(-c2c(F)cccc2F)cc1=O [Compound 29] | – | – | – | – | – | – | Test F disease control rating ([1]; 250 ppm): 0%; Test E disease control rating ([2]; 250 ppm): 100%; Test C disease control rating ([3]; 250 ppm): 99%; Test B disease control rating ([4]; 250 ppm): 98%; Test D disease control rating ([5]; 250 ppm): 25%; Test A disease control rating ([6]; 250 ppm): 100%
COc1ccc(Cl)c(-c2nn(C)c(=O)c(OC)c2-c2ccc(F)cc2Cl)c1 [Compound 101] | 99 | 99 | 99 | 100 | 100 | 100 | –
COc1ccc(Cl)c(-c2nn(C)c(=O)c(Cl)c2-c2ccccc2F)c1 [Compound 183] | 100 | 98 | 96 | 100 | 94 | 100 | –
Cn1nc(-c2cc(F)ccc2Cl)c(-c2ccc(F)cc2Cl)cc1=O [Compound 126] | 15 | 98 | 98 | 74 | 0 | 95 | –
COc1c(-c2ccc(F)cc2Cl)c(-c2cccc(F)c2F)nn(C)c1=O [Compound 116] | 100 | 98 | 99 | 100 | 52 | 100 | –
COc1cc(OC)c(Cl)c(-c2nn(C)c(=O)c(C)c2-c2c(F)cccc2F)c1 [Compound 194, 6-(2-chloro-3,5-dimethoxyphenyl)-5-(2,6-difluorophenyl)-2,4-dimethyl-3(2H)-pyridazinone] | – | – | – | – | – | – | pest or weed control at 50 ppm ([1]; 50 ppm): 99%; pest or weed control at 50 ppm ([2]; 50 ppm): 100%; pest or weed control at 50 ppm ([3]; 50 ppm): 100%; pest or weed control at 50 ppm ([4]; 50 ppm): 100%; pest or weed control at 50 ppm ([5]; 50 ppm): 100%; pest or weed control at 50 ppm ([6]; 50 ppm): 100%
COc1cc(OC)cc(-c2nn(C)c(=O)c(C)c2-c2c(F)cccc2F)c1 [Compound 21, 5-(2,6-difluorophenyl)-6-(3,5-dimethoxyphenyl)-2,4-dimethyl-3 (2H)-pyridazinone] | – | – | – | – | – | – | pest or weed control at 250 ppm ([1]; 250 ppm): 99%; pest or weed control at 250 ppm ([2]; 250 ppm): 100%; pest or weed control at 250 ppm ([3]; 250 ppm): 100%; pest or weed control at 250 ppm ([4]; 250 ppm): 100%; pest or weed control at 250 ppm ([5]; 250 ppm): 100%; pest or weed control at 250 ppm ([6]; 250 ppm): 100%
COc1c(-c2ccc(F)cc2Cl)c(-c2cc(C#N)ccc2Cl)nn(C)c1=O [Compound 53] | 40 | 92 | 99 | 100 | 68 | 100 | –
Cn1nc(-c2c(F)cccc2F)c(-c2c(F)cccc2F)cc1=O [Compound 5, 5,6-bis(2,6-difluorophenyl)-2-methyl-3(2H)-pyridazinone] | – | – | – | – | – | – | pest or weed control at 250 ppm ([1]; 250 ppm): 0%; pest or weed control at 250 ppm ([2]; 250 ppm): 99%; pest or weed control at 250 ppm ([3]; 250 ppm): 100%; pest or weed control at 250 ppm ([4]; 250 ppm): 0%; pest or weed control at 250 ppm ([5]; 250 ppm): 0%; pest or weed control at 250 ppm ([6]; 250 ppm): 42%
COc1cc(F)c(Cl)c(-c2nn(C)c(=O)cc2-c2c(F)cccc2F)c1 [Compound 205] | 99 | 99 | 98 | 99 | 71 | 100 | –
COc1cc(F)cc(-c2nn(C)c(=O)c(Cl)c2-c2ccc(F)cc2Cl)c1Br [Compound 158] | 99 | 99 | 100 | 100 | 100 | 100 | –
COc1cc(OC)cc(-c2nn(C)c(=O)c(OC)c2-c2ccc(F)cc2Cl)c1 [Compound 78] | 99 | 95 | 98 | 99 | 59 | 100 | –
Cn1nc(-c2ccc(F)cc2Br)c(-c2ccc(F)cc2Cl)c(Cl)c1=O [Compound 156] | 87 | 100 | 99 | 100 | 96 | 99 | –
COc1ccc(-c2nn(C)c(=O)c(Cl)c2-c2ccc(F)cc2Cl)c(F)c1 [Compound 163] | 99 | 100 | 78 | 100 | 77 | 100 | –
COc1ccc(Cl)c(-c2nn(C)c(=O)c(Cl)c2-c2ccccc2Cl)c1 [Compound 184] | 99 | 96 | 96 | 100 | 99 | 100 | –
CCn1nc(-c2cc(OC)cc(OC)c2)c(-c2c(F)cccc2F)c(Br)c1=O [Compound 15] | 0 | 68 | 13 | 41 | 0 | 78 | –
Cn1nc(-c2ccc(F)cc2Cl)c(-c2ccc(F)cc2Cl)c(C(=O)O)c1=O [Compound 144] | – | – | – | – | – | – | Test F disease control rating ([1]; 250 ppm): 0%; Test E disease control rating ([2]; 250 ppm): 0%; Test C disease control rating ([3]; 250 ppm): 0%; Test B disease control rating ([4]; 250 ppm): 0%; Test D disease control rating ([5]; 250 ppm): 74%; Test A disease control rating ([6]; 250 ppm): 0%
COc1c(-c2ccc(F)cc2Cl)c(-c2cccc(Cl)c2F)nn(C)c1=O [Compound 109] | 85 | 96 | 99 | 74 | 0 | 100 | –
CCn1nc(-c2c(F)cccc2F)c(-c2c(F)cccc2F)cc1=O [Compound 23] | – | – | – | – | – | – | Test F disease control rating ([1]; 250 ppm): 0%; Test E disease control rating ([2]; 250 ppm): 0%; Test C disease control rating ([3]; 250 ppm): 0%; Test B disease control rating ([4]; 250 ppm): 0%; Test D disease control rating ([5]; 250 ppm): 0%; Test A disease control rating ([6]; 250 ppm): 0%
COc1cc(OC)cc(-c2nn(C)c(=O)c(Cl)c2-c2ccc(F)cc2Cl)c1 [Compound 55] | 99 | 99 | 98 | 100 | 99 | 99 | –
